Assay [1] concerns Mycobacterium tuberculosis. It is filed as functional. To be noted: H37Rv, 120 h.
Assay [2] concerns Mycobacterium tuberculosis. Description: microbe, parasite or virus in culture. To be noted: 120 h.

Values after ≈ are worked out from the molar mass of the structure shown.

For `COCCN(C1CCN(Cc2c(-c3ccccc3)[nH]c3c(C)cccc23)C1)S(C)(=O)=O` (centres undefined), the MIC was found to be 0.8 µM (≈ 0.353 µg/mL) in assay [1] and 1.6 µM (≈ 0.707 µg/mL) in assay [2].
In turn, `CC1COC2(CCN(c3nc(=O)c4cc(C(F)(F)F)cc([N+](=O)[O-])c4s3)CC2)O1` (centres undefined) returned an MIC in assay [2] of 0.01 µM (≈ 0.00431 µg/mL).
As for `Cc1cccc2c(CN3CCC(NS(C)(=O)=O)C3)c(-c3ccccc3)[nH]c12` (racemic), the MIC in assay [1] was 1.6 µM (≈ 0.614 µg/mL).
Take `Cc1cc(-n2cccn2)ccc1S(=O)(=O)NC1CCN(Cc2ccncc2)CC1`: the MIC in assay [1] was determined as 0.8 µM (≈ 0.329 µg/mL).
As to `O=S(=O)(NC1CCN(Cc2ccncc2)CC1)c1ccc(-n2cccn2)cc1`, the MIC in assay [1] amounted to 3.3 µM (≈ 1.31 µg/mL); in assay [2], 1.6 µM (≈ 0.636 µg/mL).
In assay [2], `NNC(=O)c1ccncc1` [ISONIAZID] returned an MIC of 0.5 µM (≈ 0.0686 µg/mL).
In assay [2], `CO[C@H]1/C=C/O[C@@]2(C)Oc3c(C)c(O)c4c(O)c(c(/C=N/N5CCN(C)CC5)c(O)c4c3C2=O)NC(=O)/C(C)=C\C=C\[C@H](C)[C@H](O)[C@@H](C)[C@@H](O)[C@@H](C)[C@H](OC(C)=O)[C@@H]1C` [RIFAMPIN] displayed an MIC of 12.5 µM (≈ 10.3 µg/mL).

Source of the values: ChEMBL document CHEMBL3351608, “2-Phenylindole and Arylsulphonamide: Novel Scaffolds Bactericidal against Mycobacterium tuberculosis” (ACS Med Chem Lett, 2014).
